Assay [1] deals with HIF-HRE transcriptional activity in SKN:HRE-MLuc cells (reflects FIH-1 inhibition). The assay is described as follows: HIF activity under hypoxia, HRE-MLuc luciferase reporter assay. In kind it is cell-based, human. To be noted: Homo sapiens, SKN:HRE-MLuc cells, 3% O2, 24 h; for activation at 100 µM: read-out: 100 μM Activity (RLU intensity at 100 μM stimulation compared with the positive control DMOG). The protocol: To evaluate HIF transactivation following FIH-1 inhibition […], we employed a luciferase reporter assay system in the human neuroblastoma cell line SK-N-BE(2)c. […] Hereafter these HRE reporter cells were designated SKN:HRE-MLuc cells.
SKN:HRE-MLuc (4 × 10^4) were incubated for 24 h on a 96 well culture plate. The medium was replaced with complete media and the test compounds (100, 25, 6.3 and 1.6 μM). DMSO (0.1%) was used as a vehicle control, DMOG (100 μM) and FG4592 (100 μM) were used as a PHDs or FIH-1 inhibitor. The cells were incubated for 24 h under a humidified atmosphere of 5% CO2 and 3% O2 at 37 °C. After incubation, the MLuc activity in culture media was measured with luciferase substrate (Takara, Shiga, Japan) by LB960 luminometer (Berthold, Wildbad, Germany). The HIF activity was calculated as the MLuc intensity, based on the vehicle and positive controls. The lower limit dose out of 100 μM, 25 μM, 6.3 μM, 1.6 μM was listed in Table 1 and Table 2, where 25% RLU intensity was measured using DMOG as a positive control.

The subject of the next assay is SKN:HRE-MLuc cells. The experiment in a line: MTS assay (cellular toxicity). In kind it is cell-based, human. To be noted: Homo sapiens; MTS assay. An excerpt: Next, we evaluated the activation of HIF by furan- and thiophene-2-carbonyl amino acid derivatives using the evaluation methods described above. Simultaneously, we investigated cellular toxicity for those derivatives with a 3-(4,5-dimethylthiazol-2-yl)-5-(3-carboxymethoxyphenyl)-2-(4-sulfophenyl)-2H-tetrazolium (MTS) assay. To indicate cellular membrane permeability, the partition coefficients, which are frequently represented by calculated logP (clogP) are listed in Table 1 and Table 2.
Cellular toxicity was measured using the CellTiter 96® Aqueous One Solution Cell Proliferation Assay kit (Promega, Madison, WI, USA). The cells were stimulated with each compound and treated with the CellTiter solution. After incubation for 3 h, the absorbance of the solutions at 492 nm was measured by Multiskan FC (Thermo Fisher Scientific, Waltham, MS, USA). As a negative control, wells with culture media were used. Wells treated with DMSO (0.1%) were used as a positive control. The IC50 values were determined using these controls.
In general terms: Formazan colour is commonly taken as a measure of viable cells.

Our source for the activation, minimal effective concentration and IC50 values is paper PMC6017830, “Furan- and Thiophene-2-Carbonyl Amino Acid Derivatives Activate Hypoxia-Inducible Factor via Inhibition of Factor Inhibiting Hypoxia-Inducible Factor-1” (Molecules : A Journal of Synthetic Chemistry and Natural …, 2018).

Some results are limits rather than exact numbers.

In general, IC50 refers to the concentration that gives 50% inhibition. The low end stands for higher potency, the high end for lower potency. `Cc1ccc(C(=O)N[C@H](Cc2c[nH]c3ccccc23)C(=O)O)s1` [Compound 16, (R)-(5-methylthiophene-2-carbonyl)tryptophan]: in assay [1], the activation at 100 µM worked out at 30%. In assay [1] (doses 100, 25, 6.3, 1.6 μM, DMOG 100 μM as positive control, read-out: 25% Activity (lower dose limit showing 25% of the RLU intensity of the positive control DMOG)), the minimal effective concentration amounted to 100 µM. The IC50 in the assay on SKN:HRE-MLuc cells was above 100 µM.

Take `COC(=O)[C@H](Cc1c[nH]c2ccccc12)NC(=O)c1cc2ccccc2s1` [Compound 43, (S)-Methyl (benzothiophene-2-carbonyl)tryptophanate]: the activation at 100 µM in assay [1] is 0%. In the assay on SKN:HRE-MLuc cells, the IC50 is above 100 µM.

`CCOC(=O)[C@H](C)NC(=O)c1ccc(C)s1` [Compound 13, (S)-Ethyl (5-methylthiophene-2-carbonyl)alaninate]: in assay [1], the activation at 100 µM amounted to 0%. This compound also showed an IC50 in the assay on SKN:HRE-MLuc cells above 100 µM.

Consider `COC(=O)CNC(=O)c1cc2ccccc2s1` [Compound 39, Methyl (benzothiophene-2-carbonyl)glycinate], for which the activation at 100 µM in assay [1] is 13%. The same compound had an IC50 in the assay on SKN:HRE-MLuc cells above 100 µM.

Turning to `COC(=O)[C@H](Cc1ccccc1)NC(=O)c1ccc(-c2ccccc2)o1` [Compound 20, (S)-Methyl (5-phenylfuran-2-carbonyl)phenylalaninate], the activation at 100 µM in assay [1] was determined as 10%. The compound further gave a concentration for half-maximal inhibition (IC50) in the assay with SKN:HRE-MLuc cells above 100 µM.

Turning to `CCOC(=O)[C@H](Cc1ccccc1)NC(=O)c1ccc(-c2ccc(Oc3ccccc3)cc2)s1` [Compound 35, (S)-Ethyl (5-(4-phenoxyphenyl)thiophene-2-carbonyl)phenylalaninate], in assay [1], the activation at 100 µM amounted to 0%. In the assay on SKN:HRE-MLuc cells, this compound had an IC50 above 100 µM.

`CCOC(=O)[C@H](Cc1ccccc1)NC(=O)c1cc2ccccc2s1` [Compound 41, (S)-Ethyl (benzothiophene-2-carbonyl)phenylalaninate]: the activation at 100 µM in assay [1] amounted to 2%. The compound also returned an IC50 in the assay on SKN:HRE-MLuc cells above 100 µM.

As for `COC(=O)[C@H](C)NC(=O)c1ccc(-c2ccc(Oc3ccccc3)cc2)s1` [Compound 34, (S)-Methyl (5-(4-phenoxyphenyl)thiophene-2-carbonyl)alaninate], the activation at 100 µM in assay [1] was determined as 0%. The same compound displayed a 50% inhibitory concentration (IC50) in the assay on SKN:HRE-MLuc cells above 100 µM.

Consider `CCOC(=O)[C@H](C)NC(=O)c1cc2ccccc2s1` [Compound 40, (S)-Ethyl (benzothiophene-2-carbonyl)alaninate], for which the activation at 100 µM in assay [1] worked out at 0%. For the same compound, the IC50 in the assay on SKN:HRE-MLuc cells was above 100 µM.

Take `CCOC(=O)[C@H](C)NC(=O)c1ccc(-c2ccccc2)s1` [Compound 22, (S)-Ethyl (5-phenylthiophene-2-carbonyl)alaninate]: in assay [1], the activation at 100 µM came out at 16%. Further, the 50% inhibitory concentration (IC50) in the assay on SKN:HRE-MLuc cells was above 100 µM.

In the case of `COC(=O)[C@H](Cc1c[nH]c2ccccc12)NC(=O)c1ccco1` [Compound 3, (S)-Methyl (furan-2-carbonyl)tryptophanate], the activation at 100 µM in assay [1] worked out at 0%. For the same compound, the IC50 in the assay with SKN:HRE-MLuc cells is above 100 µM.

As for `COC(=O)[C@H](Cc1c[nH]c2ccccc12)NC(=O)c1ccc(-c2ccc(Oc3ccccc3)cc2)s1` [Compound 36, (S)-Methyl (5-(4-phenoxyphenyl)thiophene-2-carbonyl)tryptophanate], in assay [1], the activation at 100 µM is 0%. The same compound had an IC50 with SKN:HRE-MLuc cells above 100 µM.

Consider `COC(=O)CNC(=O)c1cccs1` [Compound 2, Methyl (thiophene-2-carbonyl)glycinate], for which the activation at 100 µM in assay [1] amounted to 0%. For the same compound, in the assay with SKN:HRE-MLuc cells, the 50% inhibitory concentration (IC50) was above 100 µM.

Consider `COC(=O)[C@H](Cc1ccccc1)NC(=O)c1ccc(-c2ccccc2)s1` [Compound 24, (S)-Methyl (5-phenylthiophene-2-carbonyl)phenylalaninate], for which, in assay [1], the activation at 100 µM was found to be 7%. In the assay on SKN:HRE-MLuc cells, this compound gave an IC50 above 100 µM.

As for `COC(=O)[C@@H](Cc1c[nH]c2ccccc12)NC(=O)c1cccs1` [Compound 6, (R)-Methyl (thiophene-2-carbonyl)tryptophanate], the activation at 100 µM in assay [1] amounted to 0%. Further, the IC50 in the assay on SKN:HRE-MLuc cells is above 100 µM.

Regarding `COC(=O)[C@H](Cc1c[nH]c2ccccc12)NC(=O)c1cccs1` [Compound 5, (S)-Methyl (thiophene-2-carbonyl)tryptophanate], the activation at 100 µM in assay [1] was 0%. In the assay on SKN:HRE-MLuc cells, this compound returned an IC50 above 100 µM.
